Measured values from patent US7687055B2, “Method of treating keratinic fibers with creatine, creatinine and/or their salts to strengthen, restructure, harden and stabilize them” (Wella AG, priority 2001, dated 2010).

Tests used:
[1] = Measurement of the repair effect: tensile elongation measurement, strand tensile strength of hair; conditions: 1 wt. % creatine in shampoo of Example 2 vs same shampoo without creatine (14.8 to 15.5 cN/tex); t-test significance level 99.9%
Protocol: Measurement of the Repair Effect
To determine the breaking force for hair, which is an indicator of the structural integrity of the hair cortex and is thus a measure of the degree of damage, common tensile elongation measurements were performed. From each hair strand, 20 individual hairs were selected and the individual hair diameters were measured with a computer-controlled laser micrometer. The force required to break the individual hairs was then determined with a tensile elongation tester (MTT 160/160 Series Miniature Tensile Tester, serial No. 600.95.05.001, DIA-STRON Ltd, England).
From these individual test results, which because of the differing hair diameters are different, the strand tensile strength (STS) was determined by calculating from the individual values the tensile strength for a hair diameter of 0.08 mm (mean diameter) taking into account the hair diameters. By taking into account the hair density, a conversion to the unit for strand tensile strength (cN/tex) was finally made. The higher the numerical value of the strand tensile strength, the lower is the hair damage.

[2] = Measurement of the improvement in combability: combing force on hair strands; conditions: 1 wt. % creatine in shampoo of Example 2 vs same shampoo without creatine (1.43 N to 1.21 N); t-test significance level 97.5%
From the text: Measurement of the Improvement in Combability The combability of hair is also an important parameter for describing hair quality. Various external influences such as certain cosmetic treatments (bleaching, dyeing permanent waving), weathering and frequent combing and brushing cause a deterioration in hair combability which is attributable to damage to the cuticula. The principle of most methods for measuring combability consists of measuring the force (combing force) required to move a comb through a hair strand under exactly defined boundary conditions. Within the framework of our own study, an automated apparatus was used for this purpose. […] The strands were then repeatedly and automatically combed one after another at a constant rate of speed, and for each combing the combing force N (newton) was recorded as a function of the combing path (strand length). The reported combing force values were finally obtained by averaging the combing forces over the combing path. The lower the combing force, the better is the combability of the hair.

CN(CC(=O)O)C(=N)N [creatine, M-amidinosarcosine]
increase of strand tensile strength [1]: 4.7%
reduction of combing force (wet combability) [2]: 15.3%
